Molecular target: T1, NlCDK1 (Nilaparvata lugens, UniProt A0A1W5R2Z8)
T1 construct: CDS cloned BamHI/HindIII in pET32a
Assay: intrinsic fluorescence quenching titration, double-log plot
Assay type: binding
Details: PBS; pH 7.4; 0.24 × 10^-6 mol/L protein; excitation 281 nm, emission 335 nm

T1 sequence (A0A1W5R2Z8 1-302): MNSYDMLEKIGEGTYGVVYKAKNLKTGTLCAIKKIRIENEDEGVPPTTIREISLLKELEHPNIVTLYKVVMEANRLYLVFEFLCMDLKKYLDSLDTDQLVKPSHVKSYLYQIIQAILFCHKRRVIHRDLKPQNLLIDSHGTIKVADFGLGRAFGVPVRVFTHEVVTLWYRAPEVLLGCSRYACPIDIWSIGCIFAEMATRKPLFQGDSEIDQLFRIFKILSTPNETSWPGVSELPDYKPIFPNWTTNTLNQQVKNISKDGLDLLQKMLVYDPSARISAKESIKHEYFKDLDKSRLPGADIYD

`O=c1cc(-c2ccc(O)cc2)oc2c([C@@H]3OC[C@H](O)[C@H](O)[C@H]3O)c(O)c([C@@H]3O[C@H](CO)[C@@H](O)[C@H](O)[C@H]3O)c(O)c12` [schaftoside, 6-C-beta-D-Glucosyl-8-C-alpha-L-arabinosylapigenin] was tested, and the “KA (apparent association constant)” value was 6.436 × 10^3.

— paper PMC5986872, “Schaftoside Interacts With NlCDK1 Protein: A Mechanism of Rice Resistance to Brown Planthopper, Nilaparvata lugens” (Frontiers in Plant Science, 2018)
